According to BindingDB's records for doi:10.1016/S0960-894X(00)80246-2 (1991):

Assay: Binding potency against SP receptor in bovine caudate using [3H]- as radioligand

Clc1ccccc1CN[C@H]1C2CCN(CC2)[C@H]1C(c1ccccc1)c1ccccc1
IC50: 56 nM

c1ccc(CN[C@H]2C3CCN(CC3)[C@H]2C(c2ccccc2)c2ccccc2)cc1
IC50: 110 nM
